Results from patent US20050250784A1 (Miikana Therapeutics Corporation, priority 2004, published 2005).

Each molecule was assayed on HDAC (HeLa cell nuclear extract, a mosaic of HDAC enzymes) (assay: In vitro fluorescent histone deacetylase assay (Biomol HDAC fluorescent activity kit)). Settings: compound concentration 100 μM; HeLa cell nuclear extract as HDAC source; substrate 50 μM, 10 min, room temperature.
Type: biochemical
Protocol: Histone deacetylase (HDAC) activity assays were performed using the HDAC fluorescent activity assay/drug discovery kit (Biomol Research Laboratories, Plymouth Meeting, Pa.) essentially according to the manufacturer's instructions. The included HeLa cell nuclear extract, which contains a mosaic of HDAC enzymes and other nuclear factors, was used as the source of HDAC activity. The final substrate concentration in the assay mixture was 50 μM. The reaction was allowed to proceed for 10 min at room temperature before stopping the reaction. Test compounds were prepared as 20 mM stock solutions in DMSO (Molecular Biology grade, Sigma-Aldrich Co., St. Louis, Mo.) and stored at −70° C. Serial dilutions of test compounds were prepared in assay buffer immediately prior to testing. DMSO was determined in a separate trial to have no significant effect on the activity of this assay at concentrations up to 5%; the final DMSO concentration in the wells was no more than 2% and therefore DMSO effects were safely neglected. Assays were performed in white polystyrene 96-well half-area assay plates (Corning, Corning, N.Y.) and measured on a Wallace 1420 fluorescent plate reader (Wallac Oy, Turku, Finland) with an excitation wavelength of 355 nm, an emission wavelength of 460 nm, and a 1 sec signal averaging time.

| SMILES | % inhibition HDAC @ 100 μM [%] |
| --- | --- |
| O=C(NO)c1cnc(N2CCN(S(=O)(=O)c3ccc(-c4cncnc4)cc3)CC2)s1 [Example 291, 2-[4-{(4-pyrimidine)benzenesulfonyl}-piperazin-1-yl]-thiazole-5-carboxylic acid hydroxyamide] | 99 |
| CC(=O)Nc1ccc(-c2ccc(S(=O)(=O)N3CCN(c4ncc(C(=O)NO)s4)CC3)cc2)cc1 [Example 292] | 100 |
| O=C(NO)c1cnc(N2CCN(S(=O)(=O)c3ccc(-c4cccnc4)cc3)CC2)s1 [Example 293, 2-[4-{(3-pyrido)benzenesulfonyl}-piperazin-1-yl]-thiazole-5-carboxylic acid hydroxyamide] | 100 |
| O=C(NO)c1cnc(N2CCN(S(=O)(=O)CCc3ccccc3)CC2)s1 [Example 294, 2-[4-(phenethylsulfonyl)piperazin-1-yl]-thiazole-5-carboxylic acid hydroxyamide] | 98 |
| CN(C)Cc1ccc(S(=O)(=O)N2CCN(c3ncc(C(=O)NO)s3)CC2)cc1 [Example 295] | 98 |
| CN(C)Cc1cccc(S(=O)(=O)N2CCN(c3ncc(C(=O)NO)s3)CC2)c1 [Example 297] | 99 |
| O=C(NO)c1cnc(N2CCN(S(=O)(=O)c3cccc(CN4CCCC4)c3)CC2)s1 [Example 298] | 98 |
| O=C(NO)c1cnc(N2CCN(S(=O)(=O)c3ccc(CN4CCCC4)cc3)CC2)s1 [Example 305] | 99 |
| O=C(NO)c1cnc(N2CCN(S(=O)(=O)c3ccc(CN4CCOCC4)cc3)CC2)s1 [Example 306] | 99 |
